Values quoted from earlier work, collected in patent publication US12310957B2, “Bowel cleansing composition” (priority 2013, dated 2025).

System: patients undergoing colonoscopy
Conditions: Nunes et al. 2008, scale proposed by the authors

OC[C@@H](O)[C@@H](O)[C@H](O)[C@H](O)CO [mannitol]
rate of adequate bowel cleansing: 75%
